Measured values as given in ChEMBL document CHEMBL3112480, “γ-Alkylidene-γ-lactones and isobutylpyrrol-2(5H)-ones analogues to rubrolides as inhibitors of biofilm formation by gram-positive and gram-negative bacteria” (Bioorg Med Chem Lett, 2014).
≈ marks a conversion by molar mass, not a printed value.

Columns and labels:
Streptococcus mutans [1] = experiment: Antibacterial activity against Streptococcus mutans ATCC 25175 assessed as effect on planktonic growth at 21.9 ug/ml after 20 hrs relative to control; format: functional
Streptococcus mutans [2] = experiment: Antibacterial activity against Streptococcus mutans ATCC 25175 assessed as effect on planktonic growth at 43.8 ug/ml after 20 hrs relative to control; format: functional
Streptococcus mutans [3] = experiment: Antibacterial activity against Streptococcus mutans ATCC 25175 assessed as effect on planktonic growth at 87.5 ug/ml after 20 hrs relative to control; format: functional
Staphylococcus aureus [4] = experiment: Antibacterial activity against Staphylococcus aureus ATCC 25923 assessed as effect on planktonic growth at 0.17 ug/ml after 20 hrs relative to control; format: functional
Staphylococcus aureus [5] = experiment: Antibacterial activity against Staphylococcus aureus ATCC 25923 assessed as effect on planktonic growth at 0.34 ug/ml after 20 hrs relative to control; format: functional
Staphylococcus aureus [6] = experiment: Antibacterial activity against Staphylococcus aureus ATCC 25923 assessed as effect on planktonic growth at 0.68 ug/ml after 20 hrs relative to control; format: functional
Staphylococcus aureus [7] = experiment: Antibacterial activity against Staphylococcus aureus ATCC 25923 assessed as effect on planktonic growth at 1.37 ug/ml after 20 hrs relative to control; format: functional
Staphylococcus aureus [8] = experiment: Antibacterial activity against Staphylococcus aureus ATCC 25923 assessed as effect on planktonic growth at 5.5 ug/ml after 20 hrs relative to control; format: functional
Staphylococcus aureus [9] = experiment: Antibacterial activity against Staphylococcus aureus ATCC 25923 assessed as effect on planktonic growth at 2.73 ug/ml after 20 hrs relative to control; format: functional
Staphylococcus aureus [10] = experiment: Antibacterial activity against Staphylococcus aureus ATCC 25923 assessed as effect on planktonic growth at 10.9 ug/ml after 20 hrs relative to control; format: functional
Staphylococcus aureus [11] = experiment: Antibacterial activity against Staphylococcus aureus ATCC 25923 assessed as effect on planktonic growth at 21.9 ug/ml after 20 hrs relative to control; format: functional
Staphylococcus aureus [12] = experiment: Antibacterial activity against Staphylococcus aureus ATCC 25923 assessed as effect on planktonic growth at 43.8 ug/ml after 20 hrs relative to control; format: functional
Staphylococcus aureus [13] = experiment: Antibacterial activity against Staphylococcus aureus ATCC 25923 assessed as effect on planktonic growth at 87.5 ug/ml after 20 hrs relative to control; format: functional
Pseudomonas aeruginosa [14] = experiment: Antibacterial activity against Pseudomonas aeruginosa ATCC 27853 assessed as effect on planktonic growth at 0.17 ug/ml after 20 hrs relative to control; format: functional
Pseudomonas aeruginosa [15] = experiment: Antibacterial activity against Pseudomonas aeruginosa ATCC 27853 assessed as effect on planktonic growth at 0.34 ug/ml after 20 hrs relative to control; format: functional
Pseudomonas aeruginosa [16] = experiment: Antibacterial activity against Pseudomonas aeruginosa ATCC 27853 assessed as effect on planktonic growth at 0.68 ug/ml after 20 hrs relative to control; format: functional
Pseudomonas aeruginosa [17] = experiment: Antibacterial activity against Pseudomonas aeruginosa ATCC 27853 assessed as effect on planktonic growth at 1.37 ug/ml after 20 hrs relative to control; format: functional
Pseudomonas aeruginosa [18] = experiment: Antibacterial activity against Pseudomonas aeruginosa ATCC 27853 assessed as effect on planktonic growth at 2.73 ug/ml after 20 hrs relative to control; format: functional
Pseudomonas aeruginosa [19] = experiment: Antibacterial activity against Pseudomonas aeruginosa ATCC 27853 assessed as effect on planktonic growth at 5.5 ug/ml after 20 hrs relative to control; format: functional
Pseudomonas aeruginosa [20] = experiment: Antibacterial activity against Pseudomonas aeruginosa ATCC 27853 assessed as effect on planktonic growth at 10.9 ug/ml after 20 hrs relative to control; format: functional
Pseudomonas aeruginosa [21] = experiment: Antibacterial activity against Pseudomonas aeruginosa ATCC 27853 assessed as effect on planktonic growth at 21.9 ug/ml after 20 hrs relative to control; format: functional
Pseudomonas aeruginosa [22] = experiment: Antibacterial activity against Pseudomonas aeruginosa ATCC 27853 assessed as effect on planktonic growth at 43.8 ug/ml after 20 hrs relative to control; format: functional
Pseudomonas aeruginosa [23] = experiment: Antibacterial activity against Pseudomonas aeruginosa ATCC 27853 assessed as effect on planktonic growth at 87.5 ug/ml after 20 hrs relative to control; format: functional
[24] = test system: Staphylococcus epidermidis; experiment: Antibacterial activity against Staphylococcus epidermidis ATCC 35547 assessed as effect on planktonic growth at 0.17 ug/ml after 20 hrs relative to control; format: functional
[25] = test system: Staphylococcus epidermidis; experiment: Antibacterial activity against Staphylococcus epidermidis ATCC 35547 assessed as effect on planktonic growth at 0.34 ug/ml after 20 hrs relative to control; format: functional
[26] = test system: Staphylococcus epidermidis; experiment: Antibacterial activity against Staphylococcus epidermidis ATCC 35547 assessed as effect on planktonic growth at 0.68 ug/ml after 20 hrs relative to control; format: functional
[27] = test system: Staphylococcus epidermidis; experiment: Antibacterial activity against Staphylococcus epidermidis ATCC 35547 assessed as effect on planktonic growth at 1.37 ug/ml after 20 hrs relative to control; format: functional
[28] = test system: Staphylococcus epidermidis; experiment: Antibacterial activity against Staphylococcus epidermidis ATCC 35547 assessed as effect on planktonic growth at 2.73 ug/ml after 20 hrs relative to control; format: functional
[29] = test system: Staphylococcus epidermidis; experiment: Antibacterial activity against Staphylococcus epidermidis ATCC 35547 assessed as effect on planktonic growth at 5.5 ug/ml after 20 hrs relative to control; format: functional
[30] = test system: Staphylococcus epidermidis; experiment: Antibacterial activity against Staphylococcus epidermidis ATCC 35547 assessed as effect on planktonic growth at 10.9 ug/ml after 20 hrs relative to control; format: functional
[31] = test system: Staphylococcus epidermidis; experiment: Antibacterial activity against Staphylococcus epidermidis ATCC 35547 assessed as effect on planktonic growth at 21.9 ug/ml after 20 hrs relative to control; format: functional
[32] = test system: Staphylococcus epidermidis; experiment: Antibacterial activity against Staphylococcus epidermidis ATCC 35547 assessed as effect on planktonic growth at 43.8 ug/ml after 20 hrs relative to control; format: functional
[33] = test system: Staphylococcus epidermidis; experiment: Antibacterial activity against Staphylococcus epidermidis ATCC 35547 assessed as effect on planktonic growth at 87.5 ug/ml after 20 hrs relative to control; format: functional
Pseudomonas aeruginosa [34] = experiment: Antibacterial activity against Pseudomonas aeruginosa ATCC 27853 assessed as inhibition of biofilm formation after 20 hrs by crystal-violet staining method; format: functional, organism-based; settings: for IC50: ATCC 27853, 20 h
[35] = test system: Staphylococcus epidermidis; experiment: Antibacterial activity against Staphylococcus epidermidis ATCC 35547 assessed as inhibition of biofilm formation after 20 hrs by crystal-violet staining method; format: functional, organism-based; settings: for IC50: ATCC 35547, 20 h
Streptococcus mutans [36] = experiment: Antibacterial activity against Streptococcus mutans ATCC 25175 assessed as effect on planktonic growth at 0.17 ug/ml after 20 hrs relative to control; format: functional
Streptococcus mutans [37] = experiment: Antibacterial activity against Streptococcus mutans ATCC 25175 assessed as effect on planktonic growth at 0.34 ug/ml after 20 hrs relative to control; format: functional
Streptococcus mutans [38] = experiment: Antibacterial activity against Streptococcus mutans ATCC 25175 assessed as effect on planktonic growth at 0.68 ug/ml after 20 hrs relative to control; format: functional
Streptococcus mutans [39] = experiment: Antibacterial activity against Streptococcus mutans ATCC 25175 assessed as effect on planktonic growth at 1.37 ug/ml after 20 hrs relative to control; format: functional
Streptococcus mutans [40] = experiment: Antibacterial activity against Streptococcus mutans ATCC 25175 assessed as effect on planktonic growth at 2.73 ug/ml after 20 hrs relative to control; format: functional
Streptococcus mutans [41] = experiment: Antibacterial activity against Streptococcus mutans ATCC 25175 assessed as effect on planktonic growth at 5.5 ug/ml after 20 hrs relative to control; format: functional
Streptococcus mutans [42] = experiment: Antibacterial activity against Streptococcus mutans ATCC 25175 assessed as effect on planktonic growth at 10.9 ug/ml after 20 hrs relative to control; format: functional
Streptococcus mutans [43] = experiment: Antibacterial activity against Streptococcus mutans ATCC 25175 assessed as inhibition of biofilm formation at 44 ug/ml after 20 hrs by crystal-violet staining method relative to control; format: functional; settings: ATCC 25175, 20 h

## COc1cccc(/C=C2/C(c3cc(Cl)ccc3OC)=C(Br)C(=O)N2CC(C)C)c1
Streptococcus mutans [1]
  Activity: 6.2%
Streptococcus mutans [2]
  Activity: 12.3%
Streptococcus mutans [3]
  Activity: 30.8%
Staphylococcus aureus [4]
  Activity: -2.6%
Staphylococcus aureus [5]
  Activity: -3%
Staphylococcus aureus [6]
  Activity: -9.6%
Staphylococcus aureus [7]
  Activity: -5.7%
Staphylococcus aureus [8]
  Activity: -3.5%
Staphylococcus aureus [9]
  Activity: -13.7%
Staphylococcus aureus [10]
  Activity: -7.2%
Staphylococcus aureus [11]
  Activity: 7.2%
Staphylococcus aureus [12]
  Activity: -11.3%
Staphylococcus aureus [13]
  Activity: 13%
Pseudomonas aeruginosa [14]
  Activity: 3.2%
Pseudomonas aeruginosa [15]
  Activity: 2.8%
Pseudomonas aeruginosa [16]
  Activity: 1%
Pseudomonas aeruginosa [17]
  Activity: 0.8%
Pseudomonas aeruginosa [18]
  Activity: 0.2%
Pseudomonas aeruginosa [19]
  Activity: -9.1%
Pseudomonas aeruginosa [20]
  Activity: -15.5%
Pseudomonas aeruginosa [21]
  Activity: -10%
Pseudomonas aeruginosa [22]
  Activity: -8.9%
Pseudomonas aeruginosa [23]
  Activity: -2.1%
[24]
  Activity: 5.8%
[25]
  Activity: -0.7%
[26]
  Activity: 5.5%
[27]
  Activity: -2.6%
[28]
  Activity: -3.8%
[29]
  Activity: -2.3%
[30]
  Activity: 0.9%
[31]
  Activity: 11.3%
[32]
  Activity: 24.6%
[33]
  Activity: 35.5%
Pseudomonas aeruginosa [34]
  inhibition: Dose-dependent effect
  IC50: > 87.5 µg/mL
[35]
  inhibition: Dose-dependent effect
  IC50: 41 µg/mL (≈ 86 µM)
Streptococcus mutans [36]
  Activity: -19.6%
Streptococcus mutans [37]
  Activity: -18.2%
Streptococcus mutans [38]
  Activity: -17.3%
Streptococcus mutans [39]
  Activity: -4.4%
Streptococcus mutans [40]
  Activity: -6.5%
Streptococcus mutans [41]
  Activity: 2.6%
Streptococcus mutans [42]
  Activity: 1.2%

## COc1ccc(C)cc1C1=C(Br)C(=O)N(CC(C)C)/C1=C/c1cccc(Cl)c1
Streptococcus mutans [1]
  Activity: -22.7%
Streptococcus mutans [2]
  Activity: -28.3%
Streptococcus mutans [3]
  Activity: -32.5%
Staphylococcus aureus [4]
  Activity: 4.1%
Staphylococcus aureus [5]
  Activity: 2.9%
Staphylococcus aureus [6]
  Activity: 5.8%
Staphylococcus aureus [7]
  Activity: 12.5%
Staphylococcus aureus [8]
  Activity: 4.6%
Staphylococcus aureus [9]
  Activity: 9.2%
Staphylococcus aureus [10]
  Activity: 0%
Staphylococcus aureus [11]
  Activity: 0.6%
Staphylococcus aureus [12]
  Activity: 1.8%
Staphylococcus aureus [13]
  Activity: -3.2%
Pseudomonas aeruginosa [14]
  Activity: -2.3%
Pseudomonas aeruginosa [15]
  Activity: -2.2%
Pseudomonas aeruginosa [16]
  Activity: -1.3%
Pseudomonas aeruginosa [17]
  Activity: -0.9%
Pseudomonas aeruginosa [18]
  Activity: 0.3%
Pseudomonas aeruginosa [19]
  Activity: 1.5%
Pseudomonas aeruginosa [20]
  Activity: 1.8%
Pseudomonas aeruginosa [21]
  Activity: 7.8%
Pseudomonas aeruginosa [22]
  Activity: 10.5%
Pseudomonas aeruginosa [23]
  Activity: 29.8%
[24]
  Activity: 13.9%
[25]
  Activity: 16.2%
[26]
  Activity: 6.3%
[27]
  Activity: 4.2%
[28]
  Activity: 18.1%
[29]
  Activity: 8.4%
[30]
  Activity: 14.3%
[31]
  Activity: 16.6%
[32]
  Activity: 33.5%
[33]
  Activity: 39.2%
Streptococcus mutans [43]
  inhibition at 44 µg/mL: 31.7%
Pseudomonas aeruginosa [34]
  inhibition: Dose-dependent effect
  IC50: 2.4 µg/mL (≈ 5.21 µM)
[35]
  inhibition: Dose-dependent effect
  IC50: 81.4 µg/mL (≈ 177 µM)
Streptococcus mutans [36]
  Activity: -1.7%
Streptococcus mutans [37]
  Activity: -2.3%
Streptococcus mutans [38]
  Activity: -2.3%
Streptococcus mutans [39]
  Activity: -4.9%
Streptococcus mutans [40]
  Activity: -6.8%
Streptococcus mutans [41]
  Activity: -6.4%
Streptococcus mutans [42]
  Activity: -12.4%
